Results reported in US20080089860A1, “Therapeutic compositions and methods useful in treating cancer” (priority 2006, published 2008).
Entries after “also recorded” stand apart in the source; their conditions may differ.

Assays:
[1] = tested on: Baf3 cells; test: Baf3 cell proliferation assay; type: cell-based, murine
Protocol: The murine hematopoietic cell line Baf3 was maintained in RPMI 1640 medium supplemented with 10% fetal calf serum (FCS) and murine IL-3 (20 units/ml) as described previously in Damen et al., J. Biol. Chem. 270, 23402 (1995). Human myeloid cell line TF-1 was maintained in RPMI 1640 supplemented with 10% FCS and 40 ng/ml of recombinant human GM-CSF as described previously in Thomassen et al., Clin. Immunol. 95, 85 (2000). For cell proliferation assays, cells were washed in 10% FCS medium twice, resuspended in 10% FCS medium, incubated at 37° C. for 16 hours, and then cultured at 37° C. in 10% FCS medium containing various amounts of cytokines, sodium stibogluconate, or potassium antimonyl tartrate for 3-6 days as indicated. The cell numbers in proliferation assays were determined by an MTT assay or by microscopic cell counting as indicated.

[2] = tested on: DS cells; test: DS lymphoma cell growth, MTT assay; type: cell-based, human; details: day 3; IFN-alpha 1,000 u/ml
Protocol: (§1) For cell proliferation assays, cells were grown in 10% FCS culture medium containing various amounts of IFNs and/or sodium stibogluconate in 96 well plates and cultured at 37° C. for 3 or 6 days as indicated. The numbers of viable cells in proliferation assays were determined by MTT assays as described in Phatak et al., J. Immunol. 167, 3391 (2001).

[3] = tested on: U266 cells; test: U266 multiple myeloma cell growth, MTT assay; type: cell-based, human; details: day 6
Protocol: as §1

[4] = tested on: DU145 cells; test: DU145 prostate cancer cell growth, MTT assay; type: cell-based, human; details: single agent, 50 μg/ml and 100 μg/ml
Protocol: as §1
NIH3T3 (Yi, et al., Blood 85, 87 (1995)), WM9 (Forsberg, et al., Proc. Nat. Acad. Sci. USA 90, 393 (1993)), DU145 (Mickey, et al., Cancer Res. 37, 4049 (1977)), LoVo (Drewinko, et al., Cancer Res. 36, 467 (1976)), HEY (Buick, et al., Cancer Res. 45, 3668 (1985)), U251 (Yoshida, et al., Cancer 50, 410 (1982)), A549 (Giard, et al., J. Natl. Cancer Inst. 51, 1417 (1973)) and SK-N-SH (Helson, et al., Cancer Res. 35, 2594 (1975)) cell lines have been described and were cultured in RPMI 1640 supplemented with 10% fetal calf serum (FCS). For measurement of sodium stibogluconate effects on cell growth in vitro, cells were cultured in the absence (−) or presence (+) of various amounts of sodium stibogluconate for 6 days with viable cells quantified by MTT assays (Mosmann, J. Immunol. Methods 65, 55 (1983)). Percentages of growth inhibition by sodium stibogluconate were calculated (.+−.x %).

[5] = tested on: WM35 cells; test: WM35 melanoma cell growth; type: cell-based, human
Protocol: as §1

[6] = tested on: Stat1 tyrosine phosphorylation; test: IFN-alpha-induced Stat1 tyrosine phosphorylation, Western blotting; type: cell-based, human
Protocol: Cell lysates were prepared by lysing cells in cold lysis buffer for 30 min and cleared by centrifuging at 14,000 rpm at 4° C. for 15 min. For SDS-PAGE, cell lysates were mixed with equal volume of 2×SDS-PAGE sample buffer, heated at 90° C. for 5 min and separated in 10% SDS-PAGE gels. Cellular proteins in SDS-PAGE gels were transferred to nitrocellulose membrane (Schleicher & Schuell, Keene, N.H.), blocked in 5% milk, probed with antibodies and detected by using an enhanced chemiluminescence kit (ECL, Amersham, Arlington Heights, Ill.).

[7] = tested on: Jurkat cells; test: IFN-gamma secretion by Jurkat cells, ELISA; type: cell-based, human; details: 16 hrs
Protocol: Jurkat cells were cultured in the absence or presence of various amounts of SSG for 16 hours. The cells and culture medium supernatants were separated by centrifugation (1,000 g, 10 min). The amounts of IFN-gamma in the culture medium supernatants were quantified using an ELISA kit (R.D. system, Minneapolis, Minn.) following the manufacturer's protocol.

[8] = target: T1, intracellular Flag-PRL-1 (Homo sapiens, UniProt Q93096); test: Immunocomplex PTPase assay, Flag-PRL-1 NIH3T3 transfectants; type: cell-based; details: cells treated 5 min
T1 construct: expressed in transfected cells
Protocol: (§2) Immunocomplex PTPase assays were performed to assess the effects of sodium stibogluconate on intracellular PTPases. Cells were untreated or treated with sodium stibogluconate for 5 minutes, washed with fresh medium and then lysed in cold lysis buffer (50 mM Tris, pH 7.4; 150 mM NaCl; 1% NP40; 2 mM PMSF; 20 μg/ml of Aprotinin). The lysates were incubated with an anti-Flag antibody in immunoprecipitation assays. The immunocomplexes were collected with protein G sepharose beads (Pharmacia) and washed in cold lysis buffer for 4 times. […] C. for 18 hrs. 100 µL of malachite green solution (UBI) was added to each reaction prior to measurement of OD660 to quantify the amounts of free phosphate cleaved by the PTPases from the peptide substrate (Pathak et al., J. Imumol. 167, 3391 (2001)). The remaining 10% contents of individual samples were analyzed by SDS-PAGE/Western blotting to quantify the relative amounts of the phosphatase proteins. […]
(§3) The effects of sodium stibogluconate on intracellular PTPases were assessed using NIH3T3 or WM9 transfectants. […]

[9] = target: T2, intracellular Flag-PRL-3 (Homo sapiens, UniProt O75365); test: Immunocomplex PTPase assay, Flag-PRL-3 NIH3T3 transfectants; type: cell-based; details: cells treated 5 min
T2 construct: expressed in transfected cells; host or cells: NIH3T3 (pBabepuro, puromycin-selected)
Protocol: as §2, §3

T1 sequence (Q93096 whole entry): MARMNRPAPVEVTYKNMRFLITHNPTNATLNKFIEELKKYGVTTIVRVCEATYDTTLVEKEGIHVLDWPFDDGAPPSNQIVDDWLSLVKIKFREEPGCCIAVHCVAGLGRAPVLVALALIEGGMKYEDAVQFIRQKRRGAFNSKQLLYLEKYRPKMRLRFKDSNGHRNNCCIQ
T2 sequence (O75365 whole entry): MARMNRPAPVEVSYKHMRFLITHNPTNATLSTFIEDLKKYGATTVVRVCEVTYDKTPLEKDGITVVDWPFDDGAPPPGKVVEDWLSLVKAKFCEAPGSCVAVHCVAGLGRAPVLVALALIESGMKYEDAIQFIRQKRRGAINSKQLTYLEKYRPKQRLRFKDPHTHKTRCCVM

SMILES: O.O.O.O.O.O.O.O.O.O=C([O-])[C@@H]1[O][Sb]2([O-])([O][Sb]34([OH])[O][C@H]([C@H](O)CO)[C@H]([O]3)[C@H](C(=O)[O-])[O]4)[O][C@H]([C@H](O)CO)[C@@H]1[O]2.[Na+].[Na+].[Na+] [sodium stibogluconate]
- IL-3-induced Baf3 growth ([1]; 1,000 μg/ml): suppressed
- cell proliferation and viability in the absence of IL-3 ([1]; day 3 culture): failed to support cell proliferation or maintain cell viability
- activity against DS cells [2]: modest activity
- growth inhibition of U266 cells by the drug by itself [3]: substantial growth inhibition activity
- DU145 cells in day 6 culture [4]: killed all cells; also recorded: complete or near complete killing
- effect on WM35 melanoma cell line [5]: minimally affected
- IFN-alpha-induced Stat1 tyrosine phosphorylation in WM35 and WiT49-N1 cell lines [6]: failed to enhance
- Stat1 tyrosine phosphorylation in DR cells in the absence of IFN-alpha [6]: failed to induce
- IFN-alpha-induced Stat1 tyrosine phosphorylation in DR cells ([6]; 10 μg/ml, 30 min post-stimulation): approximately two folds greater than control
- IFN-alpha-induced Stat1 tyrosine phosphorylation in WM9 and DU145 cell lines ([6]; 5 hours post-stimulation): Enhanced
- IFN-gamma secretion by Jurkat T cells [7]: increased amounts of IFN-gamma
- PTPase activity of immunocomplexes from treated Flag-PRL-1 transfectants [8]: little PTPase activities
- PTPase activity of immunocomplexes from treated Flag-PRL-3 transfectants [9]: lack of PTPase activity
